Tests used:
[1] = tested on: atopic dermatitis animal model; assay: Ear thickness measurement in atopic dermatitis animal model; assay type: in vivo, NC/Nga mouse; conditions: FIG. 2
Experimental: After the ear auricle of the NC/Nga mouse was shaved with a razor, the epilating agent was applied in an appropriate amount for the complete depilation. After the epilating agent was wiped off, Then, 100 mg of the AD-inducing reagent shown in Table 2 as below was uniformly applied to the ear auricle using a micropipette tip, thereby inducing atopic dermatitis for the first time. After shaving with a razor for necessary, 150 μL of a 4% SDS aqueous solution was uniformly applied to the ear auricle using a micropipette, dried with a cold air using a dryer, and air-dried for about 2 to 3 hours. Then, 100 mg of the same AD-inducing reagent was uniformly applied to the ear auricle using a micropipette tip, thereby inducing atopic dermatitis after 2 times. All treatments were carried out twice a week to be 6 times for a total of 3 weeks, thereby producing atopic dermatitis animal model. The mice of groups 2 to 5 were obtained by the atopic dermatitis animal model prepared in Experimental Method 3 as described above. The experimental substance and the control substance were uniformly applied to the ear auricle using a micropipette tip. From the day of the experimental substance administration (Day 0) to the day of the autopsy (Day 14), they were administered once a day for 2 weeks. Ear thickness was measured for each individual by calipers, and the ear area was photographed. Ear thickness measurement and photographing were performed once a week on the day of starting the experimental substance administration and thereafter.

histamine = assay: ELISA analysis of serum histamine in atopic dermatitis animal model; assay type: in vivo, NC/Nga mouse; conditions: day of autopsy (Day 14)
Experimental: (§1) After the ear auricle of the NC/Nga mouse was shaved with a razor, the epilating agent was applied in an appropriate amount for the complete depilation. After the epilating agent was wiped off, Then, 100 mg of the AD-inducing reagent shown in Table 2 as below was uniformly applied to the ear auricle using a micropipette tip, thereby inducing atopic dermatitis for the first time.
(§2) After shaving with a razor for necessary, 150 μL of a 4% SDS aqueous solution was uniformly applied to the ear auricle using a micropipette, dried with a cold air using a dryer, and air-dried for about 2 to 3 hours. Then, 100 mg of the same AD-inducing reagent was uniformly applied to the ear auricle using a micropipette tip, thereby inducing atopic dermatitis after 2 times. All treatments were carried out twice a week to be 6 times for a total of 3 weeks, thereby producing atopic dermatitis animal model.
(§3) The mice of groups 2 to 5 were obtained by the atopic dermatitis animal model prepared in Experimental Method 3 as described above.
(§4) The experimental substance and the control substance were uniformly applied to the ear auricle using a micropipette tip. From the day of the experimental substance administration (Day 0) to the day of the autopsy (Day 14), they were administered once a day for 2 weeks.
On the day of the autopsy, blood samples were collected from the abdominal vein using a syringe. The serum isolated from the blood was analyzed for IgE and histamine using an ELISA kit.

[2] = tested on: atopic dermatitis animal model; assay: Histopathological examination of ear epidermis and dermis (H&E scoring); assay type: in vivo, NC/Nga mouse; conditions: infiltration by inflammatory cells, p<0.05, FIGS. 8 and 9
Experimental: After the ear auricle of the NC/Nga mouse was shaved with a razor, the epilating agent was applied in an appropriate amount for the complete depilation. After the epilating agent was wiped off, Then, 100 mg of the AD-inducing reagent shown in Table 2 as below was uniformly applied to the ear auricle using a micropipette tip, thereby inducing atopic dermatitis for the first time. After shaving with a razor for necessary, 150 μL of a 4% SDS aqueous solution was uniformly applied to the ear auricle using a micropipette, dried with a cold air using a dryer, and air-dried for about 2 to 3 hours. Then, 100 mg of the same AD-inducing reagent was uniformly applied to the ear auricle using a micropipette tip, thereby inducing atopic dermatitis after 2 times. All treatments were carried out twice a week to be 6 times for a total of 3 weeks, thereby producing atopic dermatitis animal model. The mice of groups 2 to 5 were obtained by the atopic dermatitis animal model prepared in Experimental Method 3 as described above. The experimental substance and the control substance were uniformly applied to the ear auricle using a micropipette tip. From the day of the experimental substance administration (Day 0) to the day of the autopsy (Day 14), they were administered once a day for 2 weeks. On the day of the autopsy, ears were removed for the histopathological examination and fixed in 10% neutral buffered formalin solution. The fixed tissues were subject to the general tissue treatment such as reprofiling, dehydration, paraffin embedding, and dissection, thereby preparing specimens for histopathological examination. Then, hematoxylin and eosin (H & E) and TUNEL assays were performed on histopathologic specimens, and the light microscopy (Olympus BX53, Japan) was used to observe histopathologic changes. In the histopathologic evaluation using hematoxylin and eosin staining slides, in order to compare the degree of the lesion with the induced control group, the most severe lesion was selected, and then the hypertrophy, hyperkeratosis and infiltration by inflammatory cells were evaluated in the epidermis. In the dermis, the infiltration by inflammatory cells was evaluated. Scoring criteria are the same as 0 (no symptoms), 1 (mild), 2 (moderate), and 3 (severe) (Taniguchi Y et al 2003).

[3] = tested on: atopic mouse skin tissues; assay: Immunohistochemical staining of atopic mouse skin tissue (angiogenic marker, inflammatory cells, keratin); assay type: in vivo, NC/Nga mouse; conditions: atopic mouse skin tissue, also similar to prednisolone treated group
Experimental: as §1, §2, §3, §4
Atopy mouse skin tissues were immersed in Xylene three times for 5 minutes, 100% ethanol for 2 minutes, 95% ethanol for 2 minutes, 90% ethanol for 2 minutes, 70% ethanol for 2 minutes and D.W. for 2 minutes to remove paraffin and to perform hydration. After washing with PBS, they were treated with 0.2% Triton X-100 to increase cell permeability. After re-washing with PBS, they were reacted with blocking solution, 3% bovine serum albumin, for 1 hour. For inflammatory cells and keratin staining, they were reacted with F4/80 (sc-377009, Santa Cruz) and cytokeratin (NB600-579, NOVUSBIO) antibodies, respectively, at room temperature for 2 hours. After washing with PBS, they were treated with Texas Red (ab6787, Abcam) secondary antibody and reacted at room temperature for 60 minutes. The mounting solution was dropped on the tissue of the slide. Then, the tissue was covered with a cover slide, and the sample was observed under a fluorescence microscope. For analysis of the degree of angiogenesis, the atopic skin tissue was reacted with FITC-conjugated isolectin B4 (L2895, Sigma), a blood vessel marker at room temperature for 2 hours. The mounting solution was dropped on the tissue of the slide. Then, the tissue was covered with a cover slide, and the sample was observed under a fluorescence microscope
The mouse skin tissues stained with the respective markers were photographed using a fluorescence microscope (DMil, Leica, Germany), and fluorescence intensities were quantitatively analyzed using an ImageJ program (NIH, Bethesda, Md., USA).

HeLa cells = assay: ACP-tetrapeptide cell membrane permeation experiment; assay type: cell-based; conditions: 3, 15 and 30 μM ACP-tetrapeptide-FITC for 3 hours, fluorescence microscopy, FIG. 14
Experimental: HeLa cells were inoculated in a 12-well plate containing glass at a density of 1×10^5 cells/well and cultured for 24 hours to attach the cells to the glass. Then, HeLa cells were treated with 3 μM ACP-FITC peptide and 3, 15, and 30 μM ACP-tetrapeptide-FITC peptide for 3 hours. After 3 hours, the cells were washed three times with PBS. Then, the cells were fixed with 3.7% formaldehyde for 20 minutes and treated with PBS containing 0.2% Triton X-100 to increase cell permeability. Then, the cells were blocked with 3% BSA for 1 hour, reacted with a tubulin antibody (Santa Cruz Biotechnology, U.S.A.) at room temperature for 2 hours, and washed three times with PBS. Next, the cells were treated with a Cy3-conjugated secondary antibody (Jackson ImmunoResearch, USA) at room temperature for 1 hour, washed twice with PBS, and then stained with 4′,6-diamidino-2-phenylindole (DAPI) for 10 minutes. Finally, the HeLa cell-attached glass was removed and mounted on a sliding glass. The cells were observed under a fluorescence microscope (DMil, Leica, Germany).

IgE = assay: ELISA analysis of serum IgE in atopic dermatitis animal model; conditions: day of autopsy (Day 14)

VKCFNCGKEGHTARNCRAPRKKGCWKCGKEGHQMKDCTERLYE (ACP-tetrapeptide)
ear thickness compared with induced control group (group 2) ([1]; 7th and 14th day after administration, tetrapeptide 0.622, ACP-tetrapeptide 4.987, prednisolone 50 μg/ear once a day, p<0.001 or p<0.01): significantly thinner | ear thickness compared with normal control group (group 1) ([1]; 14th day after administration, p<0.001): significantly thicker | histamine level compared with prednisolone treated group (histamine; FIG. 7): lower than that of the prednisolone treated group | histamine level compared with group 2 (induced control) (histamine; p<0.001 or p<0.01, FIG. 7): significantly lower | epidermis score level compared with group 2 ([2]; hypertrophy, hyperkeratosis): significantly lower | dermis score level compared with group 2 [2]: significantly lower | angiogenesis (Isolectin B4 staining) ([3]; FIG. 10): lower than that of the inducted control group | inflammatory cell inflow (F4/80 staining) ([3]; FIG. 11): lower than that of the inducted control group | keratinization and fibrosis (cytokeratin staining) ([3]; FIG. 12): lower than that of the inducted control group | cell membrane permeability (transfer into cells) (HeLa cells): transferred into the cells through ACP in a concentration-dependent manner without aggregation in the cell membrane | IgE level compared with prednisolone treated group (IgE; FIG. 7): lower than that of the prednisolone treated group | IgE level compared with group 2 (induced control) (IgE; p<0.001 or p<0.01, FIG. 7): significantly lower | IgE level compared with normal control group (IgE; p<0.001 or p<0.01, FIG. 7): significantly higher
